Laboratory results as given in US8063221B2, “Aminoquinolones as GSK-3 inhibitors” (Kyorin Pharmaceutical Co., Ltd., priority 2006, dated 2011).

Molecular target: T1, recombinant full-length human GSK3β (Homo sapiens, UniProt P49841)
T1 construct: recombinant full-length human GSK3β (Upstate); purchased Upstate
Assay: Luciferase-coupled cell-free GSK3β kinase assay
Type: biochemical
Protocol: For compounds in Tables 1 and 2, IC50 (μM) for GSK3β enzyme in cell free assay is provided as follows:
Luciferase-Coupled Protein Kinase Assays
All coupled-luciferase assays are performed by using a brief incubation with firefly luciferase (Promega) after completion of the kinase assay. KinaseGlo Plus is used for reading kinase reactions with ATP>10 μM, KinaseGlo for ATP <10 μM. The assay volume in a 384-well plate for the kinase reaction is 30 microliters.
10-25 ng of recombinant full-length human GSK3β (Upstate) is incubated in the presence or absence of compound at varying concentrations for 1 hour at 30 degrees Celsius in 20 mM MOPS, pH 7.0, 10 mM magnesium acetate, 0.2 mM EDTA, 2 mM EGTA, 30 mM magnesium chloride, 62.5 μM phospho-glycogen synthase peptide-2, 5 μM ATP, 10 mM β-glycerol phosphate, 1 mM sodium orthovanadate and 1 mM dithiothreitol. Proceed to KinaseGlo luciferase reaction (see below).
Following the completion of the kinase reaction an equal volume of KinaseGlo or KinaseGlo Plus luciferase reagent (Promega) is added and the luminescence read using a luminescence plate reader within 5-10 minutes. Compound activity is expressed as % inhibition relative to maximal inhibition observed at the maximal dose and IC50 values then calculated using curve fitting software (GraphPad Prizm).

T1 sequence (P49841 whole entry): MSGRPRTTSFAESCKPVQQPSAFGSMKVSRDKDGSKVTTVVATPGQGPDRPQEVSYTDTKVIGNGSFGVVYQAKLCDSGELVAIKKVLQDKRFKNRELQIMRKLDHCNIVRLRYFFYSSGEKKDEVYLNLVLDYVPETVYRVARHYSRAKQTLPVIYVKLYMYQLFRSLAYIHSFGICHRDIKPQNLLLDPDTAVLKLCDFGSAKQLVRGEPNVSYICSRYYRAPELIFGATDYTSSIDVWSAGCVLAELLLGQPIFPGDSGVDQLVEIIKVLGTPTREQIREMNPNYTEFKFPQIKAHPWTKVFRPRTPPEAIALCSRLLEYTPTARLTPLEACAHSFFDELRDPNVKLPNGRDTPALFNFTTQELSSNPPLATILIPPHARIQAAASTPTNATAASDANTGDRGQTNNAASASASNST

SMILES	IC50 (Table 2) [nM]	IC50 (Table 1) [nM]
Cc1nn(C)c(C)c1CCCNc1c(F)c(N)c2c(=O)c(C(=O)O)cn3c2c1OC[C@@H]3C [Example 92]	< 100	
C[C@H]1COc2c(NCCC(c3ccccc3)c3ccc4c(c3)OCO4)c(F)c(N)c3c(=O)c(C(=O)O)cn1c23 (some centres unmarked) [Example 97]	100 to 500	
CCOc1ccc(CCCNc2c(F)c(N)c3c(=O)c(C(=O)O)cn4c3c2OC[C@@H]4C)cc1OCC [Example 98]	< 100	
Cc1ccc2nc(C)cc(NCCNc3c(F)c(N)c4c(=O)c(C(=O)O)cn5c4c3OC[C@@H]5C)c2c1 [Example 100]	< 100	
C[C@H]1COc2c(NCCCc3ccc(Cl)cc3)c(F)c(N)c3c(=O)c(C(=O)O)cn1c23 [Example 102]	< 100	
C[C@H]1COc2c(NCCC3CCCCC3)c(F)c(N)c3c(=O)c(C(=O)O)cn1c23 [Example 104]	< 100	
C[C@H]1COc2c(NCCCc3ccccc3)c(F)c(N)c3c(=O)c(C#N)cn1c23 [Example 108]	< 100	
C[C@H]1COc2c(NCCNc3ccccn3)c(F)c(N)c3c(=O)c(C#N)cn1c23 [Example 110]	< 100	
Cc1n[nH]c(SCCNc2c(F)c(N)c3c(=O)c(C(=O)O)cn4c3c2OC[C@@H]4C)n1 [Example 111]	< 100	
C[C@H]1COc2c(NCCCNC(=O)c3ccccn3)c(F)c(N)c3c(=O)c(C(=O)O)cn1c23 [Example 117]	< 100	
C[C@H]1COc2c(NCCCNC(=O)c3cccnc3)c(F)c(N)c3c(=O)c(C(=O)O)cn1c23 [Example 118]	< 100	
Nc1ccc(CCNc2c(F)c(N)c3c(=O)c(C(=O)O)cn(C4CC4)c3c2F)cc1 [compound 2]		500 to 1000
Nc1c(F)c(NCCc2ccc(Cl)cc2)c(F)c2c1c(=O)c(C(=O)O)cn2C1CC1 [compound 4]		100 to 500
Nc1c(F)c(NCc2ccc(Cl)cc2)c(F)c2c1c(=O)c(C(=O)O)cn2C1CC1 [compound 8]		500 to 1000
Nc1c(F)c(NCCc2ccc(Cl)cc2)c(F)c2c1c(=O)ccn2C1CC1 [compound 9]		500 to 1000
Nc1c(F)c(NCCCn2cc[n+]3ccccc23)c2c3c1c(=O)c(C(=O)O)cn3CCO2 [compound 10]	500 to 1000	
Nc1c(F)c(NCCNc2ccccn2)c2c3c1c(=O)c(C(=O)O)cn3CCCO2 [compound 11]	> 1000	
Nc1c(F)c(NCc2ccc(Cl)cc2)c(F)c2c1c(=O)ccn2C1CC1 [compound 14]		> 1000
Nc1c(F)c(NCCc2ccc(Cl)cc2Cl)c(F)c2c1c(=O)c(C(=O)O)cn2C1CC1 [compound 18]		500 to 1000
Nc1c(F)c(N2CCN(Cc3ccccc3)CC2)c(F)c2c1c(=O)c(C(=O)O)cn2C1CC1 [compound 22]		> 1000
Nc1c(F)c(NCCc2ccc(Cl)cc2Cl)c(F)c2c1c(=O)ccn2C1CC1 [compound 24]		> 1000
CC(C)OCCCNc1c(F)c(N)c2c(=O)ccn(C3CC3)c2c1F [compound 25]		> 1000
Nc1c(F)c(NCCc2ccc(-c3ccccc3)cc2)c(F)c2c1c(=O)ccn2C1CC1 [compound 27]		> 1000
Nc1c(F)c(NCCNC(=O)c2ccccc2)c(F)c2c1c(=O)c(C(=O)O)cn2C1CC1 [compound 30]		500 to 1000
Nc1c(F)c(NCCc2ccc(F)cc2F)c(F)c2c1c(=O)ccn2C1CC1 [compound 31]		> 1000

SMILES	IC50 (Table 2) [nM]	IC50 (Table 1) [nM]
Nc1c(F)c(NCCc2ccccc2)c(F)c2c1c(=O)ccn2C1CC1 [compound 32]		500 to 1000
Nc1c(F)c(NCCNC(=O)c2ccccc2)c(F)c2c1c(=O)ccn2C1CC1 [compound 33]		500 to 1000
Nc1c(F)c(NCCNC(=O)c2ccc(F)cc2)c(F)c2c1c(=O)c(C(=O)O)cn2C1CC1 [compound 34]		100 to 500
CC1(C)COc2c(NCCNc3cccc(F)n3)c(F)c(N)c3c(=O)c(C(=O)O)cn1c23 [compound 35]	< 100	
Nc1c(F)c(NCCNC(=O)c2ccc(F)cc2)c(F)c2c1c(=O)ccn2C1CC1 [compound 35]		100 to 500
Nc1cc(NCCNc2ccccn2)cc2c1c(=O)c(C(=O)O)cn2C1CC1 [compound 36]		> 1000
N#Cc1ccc(NCCNc2c(F)c(N)c3c(=O)c(C(=O)O)cn(C4CC4)c3c2F)nc1 [compound 37]		100 to 500
Nc1c(F)c(NCCNC(=O)c2ccccn2)c(F)c2c1c(=O)c(C(=O)O)cn2C1CC1 [compound 38]		500 to 1000
Nc1c(F)c(NCCNC(=O)c2ccc3ccccc3n2)c(F)c2c1c(=O)c(C(=O)O)cn2C1CC1 [compound 39]		500 to 1000
N#Cc1ccc(NCCNc2c(F)c(N)c3c(=O)ccn(C4CC4)c3c2F)nc1 [compound 40]		100 to 500
Nc1c(F)c(NCCNC(=O)c2ccncc2)c(F)c2c1c(=O)c(C(=O)O)cn2C1CC1 [compound 41]		500 to 1000
Nc1c(F)c(NCCn2ccnc2)c(F)c2c1c(=O)c(C(=O)O)cn2C1CC1 [compound 42]		> 1000
Nc1c(F)c(NCCn2cncn2)c(F)c2c1c(=O)c(C(=O)O)cn2C1CC1 [compound 44]		> 1000
Nc1c(F)c(NCCCn2cnc3ccccc32)c2c3c1c(=O)c(C(=O)O)cn3CCCO2 [compound 45]	100 to 500	
Nc1cc(NCCCc2ccccc2)cc2c1c(=O)c(C(=O)O)cn2C1CC1 [compound 45]		> 1000
Nc1c(F)c(NCCCc2ccccc2)c2c3c1c(=O)c(C(=O)O)cn3CCCO2 [compound 46]	100 to 500	
CC1COc2c(NCCCn3cnc4ccccc43)c(F)c(N)c3c(=O)ccn1c23 (centres unmarked) [compound 47]	100 to 500	
Nc1c(F)c(NCCCn2ccnc2)c2c3c1c(=O)c(C(=O)O)cn3CCCO2 [compound 53]	100 to 500	
COc1c(NCCNc2cccc3ccccc23)c(F)c(N)c2c(=O)ccn(C3CC3)c12 [compound 66]	< 100	
CC(CCc1ccc(Cl)cc1)Nc1c(F)c(N)c2c(=O)c(C(=O)O)cn3c2c1OC[C@@H]3C (some centres unmarked) [compound 71]	< 100	
CC(COc1ccc(Cl)cc1)Nc1c(F)c(N)c2c(=O)c(C(=O)O)cn3c2c1OC[C@@H]3C (some centres unmarked) [compound 74]	500 to 1000	
COc1ccc(C(CCNc2c(F)c(N)c3c(=O)c(C(=O)O)cn4c3c2OC[C@@H]4C)c2ccc(F)cc2)cc1 (some centres unmarked) [compound 81]	< 100	
CNNC(=O)c1cn(C2CC2)c2c(F)c(NCCCc3ccccc3)c(F)c(N)c2c1=O [compound 86]		> 1000
COc1ccc(OCC(C)Nc2c(F)c(N)c3c(=O)c(C(=O)O)cn4c3c2OC[C@@H]4C)cc1 (some centres unmarked) [compound 86]	500 to 1000	

Results, then the compound that gave them:

IC50 (Table 2) [nM]	IC50 (Table 1) [nM]	SMILES
100 to 500		COc1ccc(OCCNc2c(F)c(N)c3c(=O)c(C(=O)O)cn4c3c2OC[C@@H]4C)cc1 [Compound 87]
> 1000		C[C@H]1COc2c(NCCN3CCC(c4ccccc4)C3)c(F)c(N)c3c(=O)c(C(=O)O)cn1c23 (some centres unmarked) [Example 91]
< 100		Cc1cc(NCCNc2c(F)c(N)c3c(=O)c(C(=O)O)cn4c3c2OC[C@@H]4C)c2ccccc2n1 [Example 94]
500 to 1000		C[C@H]1COc2c(NCCOc3ccc(-c4ccccc4)cc3)c(F)c(N)c3c(=O)c(C(=O)O)cn1c23 [Example 96]
< 100		C[C@H]1COc2c(NCCOc3ccccc3)c(F)c(N)c3c(=O)c(C(=O)O)cn1c23 [Example 99]
< 100		C[C@H]1COc2c(NCCOc3ccc(C(=O)O)cc3)c(F)c(N)c3c(=O)c(C(=O)O)cn1c23 [Example 105]
< 100		C[C@H]1COc2c(NCCCc3ccccc3)c(F)c(N)c3c(=O)c(C(N)=O)cn1c23 [Example 106]
< 100		C[C@H]1COc2c(NCCSc3c[nH]c4ccccc34)c(F)c(N)c3c(=O)c(C(=O)O)cn1c23 [Example 116]
< 100		CC1COc2c(NCCNc3cccc4ccccc34)c(F)c(N)c3c(=O)c(C(=O)O)cn1c23 (centres unmarked) [compound 7]
100 to 500		C[C@H]1COc2c(NCCc3ccncc3)c(F)c(N)c3c(=O)c(C(=O)O)cn1c23 [compound 22]
100 to 500		CC1(C)COc2c(NCCCOc3ccccc3)c(F)c(N)c3c(=O)c(C(=O)O)cn(c23)C1 [compound 28]
100 to 500		C[C@H]1COc2c(NCCCN3CCc4ccccc43)c(F)c(N)c3c(=O)c(C(=O)O)cn1c23 [compound 68]
< 100		C[C@H]1COc2c(NCCN3CCc4ccccc43)c(F)c(N)c3c(=O)c(C(=O)O)cn1c23 [compound 69]
< 100		COc1ccc(CCCNc2c(F)c(N)c3c(=O)c(C(=O)O)cn4c3c2OC[C@@H]4C)cc1 [compound 73]
< 100		C[C@H]1COc2c(NCCCc3ccccc3Cl)c(F)c(N)c3c(=O)c(C(=O)O)cn1c23 [compound 75]
100 to 500		Cc1ccc(OCCNc2c(F)c(N)c3c(=O)c(C(=O)O)cn4c3c2OC[C@@H]4C)cc1 [compound 77]
100 to 500		CC(C)c1ccc(OCCNc2c(F)c(N)c3c(=O)c(C(=O)O)cn4c3c2OC[C@@H]4C)cc1 [compound 78]
< 100		C[C@H]1COc2c(NCCCc3nc4ccccc4[nH]3)c(F)c(N)c3c(=O)c(C(=O)O)cn1c23 [compound 82]
< 100		C[C@H]1COc2c(NCCOc3ccc(Cl)cc3)c(F)c(N)c3c(=O)c(C(=O)O)cn1c23 [compound 83]
< 100		Cc1cc(OCCNc2c(F)c(N)c3c(=O)c(C(=O)O)cn4c3c2OC[C@@H]4C)ccc1Cl [compound 84]
100 to 500		Cc1ccc(C(C)C)c(OCCNc2c(F)c(N)c3c(=O)c(C(=O)O)cn4c3c2OC[C@@H]4C)c1 [compound 85]
	100 to 500	CC1COc2c(NCCCOc3ccccc3)c(F)c(N)c3c(=O)c(C(=O)O)cn1c23 (centres unmarked) [compound 88]
